The text below walks through data of ChEMBL document CHEMBL1147322, “X-ray crystal structure of acrovestone, a cytotoxic principle from Acronychia pedunculata” (1989).

Broadly, the inhibition is the share of the control response that was lost under treatment. Read a low inhibition as a response near the control.

≈ marks a conversion by molar mass, not a printed value.

Common to all, as to type: functional
In one assay the test system is KB. The assay can be described thus: Cytotoxicity against human KB cells at 0.5 ug/ml.
Another assay concerns A549. The assay is described as follows: Cytotoxicity against human A549 cells. The conditions noted are these: read-out: ED50 (the source's name).
Another assay concerns L1210. The assay is described as follows: Cytotoxicity against mouse L1210 cells. The conditions noted are these: read-out: ED50 (the source's name).
The next assay concerns P388. The assay is described as follows: Cytotoxicity against mouse P388 cells. The conditions noted are these: read-out: ED50 (the source's name).

Molecule `COc1c(CC=C(C)C)c(O)c([C@H](CC(C)C)c2c(O)c(CC=C(C)C)c(O)c(C(C)=O)c2O)c(O)c1C(C)=O` [ACROVESTONE] showed an inhibition at 0.5 µg/mL in the assay on KB of 100%. For the same molecule, the results for the EC50 in the assay on A549, in the assay with L1210 and in the assay on P388 were 0.98 µg/mL (≈ 1.77 µM), 2.95 µg/mL (≈ 5.32 µM) and 3.28 µg/mL (≈ 5.91 µM), respectively.
